These results are taken from patent US12612368B2 (Remedy Plan, Inc., priority 2019, dated 2026).

The structures appear in SMILES notation. Where two headings read alike, the source gives them in different places. Where only a bound is given, the exact number is not on record here.

For one assay, the system named is MV-4-11 cells. Nature of the assay: Cell viability in MV-4-11 cells (CellTiter Glo2). Type of assay: cell-based. The following applies: Homo sapiens, MV4-11, 96 h, 8-point dose response, 4 days. A general note: ATP-based viability assays read luminescence as a measure of living cells.
A further assay deals with T1, NAMPT (Homo sapiens, UniProt P43490).
T1 construct: purchased Abcam ab221819
In words: NAMPT Activity Assay (Abcam #ab221819). The following applies: purified NAMPT, two-step reaction, OD450 nm; percent inhibition vs no drug; compound concentration not stated. The format is biochemical.

Where [1] appears, read: CellTiter Glo2 (Table E1), read-out: MV-4-11 IC50.
Setting [2] is: CellTiter Glo2 (Table E2), read-out: MV-4-11 Cell Viability, MV-4-11 IC50.

Usually IC50 stands for the concentration needed to halve the response being measured.

T1 sequence (P43490 whole entry): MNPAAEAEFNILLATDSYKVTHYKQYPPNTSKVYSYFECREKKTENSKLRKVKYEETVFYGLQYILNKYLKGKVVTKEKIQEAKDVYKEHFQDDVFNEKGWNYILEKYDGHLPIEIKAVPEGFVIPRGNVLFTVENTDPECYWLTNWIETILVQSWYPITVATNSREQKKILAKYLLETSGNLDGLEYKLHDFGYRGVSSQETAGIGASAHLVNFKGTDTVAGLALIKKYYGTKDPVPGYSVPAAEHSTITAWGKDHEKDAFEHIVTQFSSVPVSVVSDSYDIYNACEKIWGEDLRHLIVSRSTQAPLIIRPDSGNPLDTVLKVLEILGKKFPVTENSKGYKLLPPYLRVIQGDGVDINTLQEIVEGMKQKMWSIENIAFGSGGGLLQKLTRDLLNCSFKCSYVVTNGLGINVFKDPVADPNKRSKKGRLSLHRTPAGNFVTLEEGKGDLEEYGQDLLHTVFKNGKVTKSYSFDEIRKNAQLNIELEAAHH
Protocol for MV-4-11 cells: Approximately 10,000 MV-4-11 cells per well of a 96-well plate were treated with DMSO (no drug control) or each compound in Tables E1 and E2 in an 8-point dose response for 4 days, Cell viability was measured using CellTiter Glo2. The ICse of each compound was determined using CDD Vault.
Protocol for NAMPT: The NAMPT Activity Assay (Abcam #ab221819) was performed following manufacturers two-step reaction protocol. Briefly, compounds were added to a clear 96-well plate using the HP D300e Digital Dispenser. Purified NAMPT was added to all wells except the No NAMPT controls. Reaction Mix #1 was added to each well and the plate was incubated at 30*C for 1 hr followed by the addition of Reaction Mix #2. Absorbance was measured at OD450 nm using a multimode plate reader. Readings were recorded for 5 minutes and percent inhibition was calculated using: (1-(OD450 nm compound/OD450 nm no drug))*100.

In the case of `CCN(C(C)=O)c1ccc(-c2ccc(C(=O)NCc3cccnc3)cn2)cc1C` [Compound I-430, 6-[4-[acetyl(ethyl)amino]-3-methyl-phenyl]-N-(3-pyridylmethyl)pyridine-3-carboxamide], in the assay with MV-4-11 cells (setting [1]), the IC50 was 267 nM. The “NAMPT Inhibition Code” value on NAMPT is “B (B = ≥33 to <66% inhibition)”.

With `CCN(C(C)=O)c1ccc(-c2ccc(C(=O)NCc3cccnc3C)cn2)cc1Cl` [Compound I-444, 6-[4-[acetyl(ethyl)amino]-3-chloro-phenyl]-N-[(2-methyl-3-pyridyl)methyl]pyridine-3-carboxamide], in the assay with MV-4-11 cells (setting [1]), the IC50 is 1820 nM. Further, the “NAMPT Inhibition Code” value at NAMPT is “A (A = <33% inhibition)”.

With `CCc1cc(-c2ccc(C(=O)NCc3cccnc3C)cn2)ccc1N(C)C(C)=O` [Compound I-445, 6-[4-[acetyl(methyl)amino]-3-ethyl-phenyl]-N-[(2-methyl-3-pyridyl)methyl]pyridine-3-carboxamide], the IC50 with MV-4-11 cells (setting [1]) is 3690 nM. Besides, the “NAMPT Inhibition Code” value on NAMPT is reported as “A (A = <33% inhibition)”.

With `CCCN(C(C)=O)c1ccc(-c2ccc(C(=O)NCc3cccnc3C)cn2)cc1C` [Compound I-446, 6-[4-[acetyl(propyl)amino]-3-methyl-phenyl]-N-[(2-methyl-3-pyridyl)methyl]pyridine-3-carboxamide], the IC50 with MV-4-11 cells (setting [1]) came out at 2170 nM. The “NAMPT Inhibition Code” value on NAMPT is on record as “A (A = <33% inhibition)”.

For `CC(=O)N(CC1COC1)c1ccc(-c2ccc(C(=O)NCc3cccnc3)cn2)cc1` [Compound I-447, 6-[4-[acetyl(oxetan-3-ylmethyl)amino]phenyl]-N-(3-pyridylmethyl)pyridine-3-carboxamide], the IC50 with MV-4-11 cells (setting [2]) worked out at 493 nM. At NAMPT, the “NAMPT Inhibition Code” value is listed as “A (A = <33% inhibition)”.

Regarding `CC(=O)N(CCNC(=O)OC(C)(C)C)c1ccc(-c2ccc(C(=O)NCc3cccnc3)cn2)cc1` [Compound I-448, tert-butyl N-[2-[N-acetyl-4-[5-(3-pyridylmethylcarbamoyl)-2-pyridyl]anilino]ethyl]carbamate], in the assay with MV-4-11 cells (setting [1]), the IC50 was found to be 691 nM. Also, the “NAMPT Inhibition Code” value on NAMPT is “A (A = <33% inhibition)”.

As for `CC(=O)N(CC(F)F)c1ccc(-c2ccc(C(=O)NCc3cccnc3C)cn2)cc1` [Compound I-449, 6-[4-[acetyl(2,2-difluoroethyl)amino]phenyl]-N-[(2-methyl-3-pyridyl)methyl]pyridine-3-carboxamide], the IC50 in the assay with MV-4-11 cells (setting [2]) turned out to be 5180 nM. Further, the “NAMPT Inhibition Code” value at NAMPT is “A (A = <33% inhibition)”.

For the compound `CCC(=O)N(C)c1ccc(-c2ccc(C(=O)NCc3ccc(C)nc3)cn2)cc1C` [Compound I-450], the IC50 in the assay with MV-4-11 cells (setting [2]) worked out at 7630 nM. The “NAMPT Inhibition Code” value on NAMPT was “B (B = ≥33 to <66% inhibition)”.

Consider `CCC(=O)N(C)c1ccc(-c2ccc(C(=O)NCc3ccc(OC)nc3)cn2)cc1C` [Compound I-451], for which, in the assay with MV-4-11 cells (setting [2]), the IC50 was 5370 nM. In addition, at NAMPT, the “NAMPT Inhibition Code” value is on record as “B (B = ≥33 to <66% inhibition)”.

As for `CC(=O)N(CC1CCC1)c1ccc(-c2ccc(C(=O)NCc3cccnc3)cn2)cc1` [Compound I-453, 6-[4-[acetyl(cyclobutylmethyl)amino]phenyl]-N-(3-pyridylmethyl)pyridine-3-carboxamide], the IC50 in the assay on MV-4-11 cells (setting [2]) amounted to 38 nM. Also, the “NAMPT Inhibition Code” value on NAMPT was “C (C = ≥66% inhibition)”.

`CC(=O)N(CC(C)C)c1ccc(-c2ccc(C(=O)NCc3cccnc3C)cn2)cc1C` [Compound I-454, 6-[4-[acetyl(isobutyl)amino]-3-methyl-phenyl]-N-[(2-methyl-3-pyridyl)methyl]pyridine-3-carboxamide]: the IC50 in the assay with MV-4-11 cells (setting [2]) turned out to be 2140 nM. In addition, the “NAMPT Inhibition Code” value on NAMPT is “A (A = <33% inhibition)”.

With `CC(=O)N(C)c1ccc(-c2ccc(C(=O)NCc3cccnc3C)cn2)cc1C(F)(F)F` [Compound I-455, 6-[4-[acetyl(methyl)amino]-3-(trifluoromethyl)phenyl]-N-[(2-methyl-3-pyridyl)methyl]pyridine-3-carboxamide], the IC50 in the assay with MV-4-11 cells (setting [2]) was 3470 nM. Besides, at NAMPT, the “NAMPT Inhibition Code” value is listed as “A (A = <33% inhibition)”.

As for `CC(=O)N(C)c1ccc(-c2ccc(C(=O)NCc3cccnc3C)cn2)cc1C#N` [Compound I-456, 6-[4-[acetyl(methyl)amino]-3-cyano-phenyl]-N-[(2-methyl-3-pyridyl)methyl]pyridine-3-carboxamide], in the assay on MV-4-11 cells (setting [2]), the IC50 is > 30000 nM. Moreover, the “NAMPT Inhibition Code” value on NAMPT is on record as “A (A = <33% inhibition)”.

With `COC(=O)c1cc(-c2ccc(C(=O)NCc3cccnc3C)cn2)ccc1N(C)C(C)=O` [Compound I-457, methyl 2-[acetyl(methyl)amino]-5-[5-[(2-methyl-3-pyridyl)methylcarbamoyl]-2-pyridyl]benzoate], in the assay on MV-4-11 cells (setting [2]), the IC50 was found to be 9850 nM. In addition, at NAMPT, the “NAMPT Inhibition Code” value is reported as “A (A = <33% inhibition)”.

Consider `CCCN(C(C)=O)c1ccc(-c2ccc(C(=O)NCc3cccnc3C)cn2)cc1Cl` [Compound I-458, 6-[4-[acetyl(propyl)amino]-3-chloro-phenyl]-N-[(2-methyl-3-pyridyl)methyl]pyridine-3-carboxamide], for which the IC50 with MV-4-11 cells (setting [2]) came to 1710 nM. The “NAMPT Inhibition Code” value on NAMPT was “A (A = <33% inhibition)”.

Take `CC(=O)N(CC(C)C)c1ccc(-c2ccc(C(=O)NCc3cccnc3C)cn2)cc1Cl` [Compound I-459, 6-[4-[acetyl(isobutyl)amino]-3-chloro-phenyl]-N-[(2-methyl-3-pyridyl)methyl]pyridine-3-carboxamide]: the IC50 with MV-4-11 cells (setting [2]) was found to be 1510 nM. Also, the “NAMPT Inhibition Code” value on NAMPT is listed as “A (A = <33% inhibition)”.

In the case of `CCC(=O)N(C)c1ccc(-c2ccc(C(=O)NCc3cccnc3C)cc2)cc1Cl` [Compound I-460, 4-[3-chloro-4-[methyl(propanoyl)amino]phenyl]-N-[(2-methyl-3-pyridyl)methyl]benzamide], in the assay with MV-4-11 cells (setting [2]), the IC50 is > 694 nM. For the same compound, on NAMPT, the “NAMPT Inhibition Code” value is recorded as “A (A = <33% inhibition)”.

In the case of `COC(=O)NCCN(C(C)=O)c1ccc(-c2ccc(C(=O)NCc3cccnc3)cn2)cc1` [Compound I-466, Methyl N-[2-[N-acetyl-4-[5-(3-pyridylmethylcarbamoyl)-2-pyridyl]anilino]ethyl]carbamate], the IC50 in the assay on MV-4-11 cells (setting [2]) worked out at 871 nM. In addition, the “NAMPT Inhibition Code” value on NAMPT is listed as “A (A = <33% inhibition)”.

Regarding `CC(=O)N(CC(C)C)c1ccc(-c2ccc(C(=O)NCc3cccnc3C)cn2)cc1` [Compound I-467, 6-[4-[Acetyl(isobutyl)amino]phenyl]-N-[(2-methyl-3-pyridyl)methyl]pyridine-3-carboxamide], in the assay with MV-4-11 cells (setting [2]), the IC50 is 4340 nM. Also, the “NAMPT Inhibition Code” value on NAMPT is on record as “A (A = <33% inhibition)”.

On to `CC(C)CN(C(=O)C(F)F)c1ccc(-c2ccc(C(=O)NCc3cccnc3)cn2)cc1` [Compound I-468, 6-[4-[(2,2-Difluoroacetyl)-isobutyl-amino]phenyl]-N-(3-pyridylmethyl)pyridine-3-carboxamide], for which, in the assay with MV-4-11 cells (setting [2]), the IC50 is 33.3 nM. Moreover, the “NAMPT Inhibition Code” value at NAMPT is “B (B = ≥33 to <66% inhibition)”.

In the case of `CCC(=O)N(C)c1ccc(-c2ccc(C(=O)NCc3ccc(C)nc3C)cc2)cc1Cl` [Compound I-481, 4-[3-chloro-4-[methyl(propanoyl)amino]phenyl]-N-[(2,6-dimethyl-3-pyridyl)methyl]benzamide], in the assay on MV-4-11 cells (setting [2]), the IC50 amounted to 104 nM. In addition, the “NAMPT Inhibition Code” value on NAMPT was “A (A = <33% inhibition)”.

Turning to `CC(=O)N(CCC(F)(F)F)c1ccc(-c2ccc(C(=O)NCc3cccnc3)cn2)cc1` [Compound I-482, 6-[4-[Acetyl(3,3,3-trifluoropropyl)amino]phenyl]-N-(3-pyridylmethyl)pyridine-3-carboxamide], the IC50 in the assay on MV-4-11 cells (setting [2]) worked out at 226 nM. For the same compound, the “NAMPT Inhibition Code” value at NAMPT is listed as “B (B = ≥33 to <66% inhibition)”.

In the case of `CC(=O)Nc1ccc(-c2ccc(C(=O)N(C)Cc3cccnc3C)cn2)cc1C#N` [Compound I-483, 6-(4-Acetamido-3-cyano-phenyl)-N-methyl-N-[(2-methyl-3-pyridyl)methyl]pyridine-3-carboxamide], the IC50 in the assay on MV-4-11 cells (setting [2]) is > 30000 nM. The “NAMPT Inhibition Code” value at NAMPT is on record as “A (A = <33% inhibition)”.

For `CC(=O)N(CCC#N)c1ccc(-c2ccc(C(=O)NCc3cccnc3)cn2)cc1` [Compound I-484, 6-[4-[acetyl(2-cyanoethyl)amino]phenyl]-N-(3-pyridylmethyl)pyridine-3-carboxamide], in the assay with MV-4-11 cells (setting [2]), the IC50 turned out to be 2660 nM. For the same compound, the “NAMPT Inhibition Code” value at NAMPT was “A (A = <33% inhibition)”.

For `CC(=O)N(CC1CC(F)(F)C1)c1ccc(-c2ccc(C(=O)NCc3cccnc3C)cn2)cc1C` [Compound I-485, 6-[4-[Acetyl-[(3,3-difluorocyclobutyl)methyl]amino]-3-methyl-phenyl]-N-[(2-methyl-3-pyridyl)methyl]pyridine-3-carboxamide], in the assay with MV-4-11 cells (setting [2]), the IC50 was found to be 1340 nM. Moreover, the “NAMPT Inhibition Code” value on NAMPT is “A (A = <33% inhibition)”.

For `CCOC(=O)NCCN(C(C)=O)c1ccc(-c2ccc(C(=O)NCc3cccnc3C)cn2)cc1C` [Compound I-486, Ethyl N-[2-[N-acetyl-2-methyl-4-[5-[(2-methyl-3-pyridyl)methylcarbamoyl]-2-pyridyl]anilino]ethyl]carbamate], in the assay with MV-4-11 cells (setting [2]), the IC50 amounted to 2700 nM. Besides, the “NAMPT Inhibition Code” value at NAMPT was “A (A = <33% inhibition)”.

Regarding `COC(=O)NCCN(C(C)=O)c1ccc(-c2ccc(C(=O)NCc3cccnc3C)cn2)cc1C` [Compound I-487, Methyl N-[2-[N-acetyl-2-methyl-4-[5-[(2-methyl-3-pyridyl)methylcarbamoyl]-2-pyridyl]anilino]ethyl]carbamate], the IC50 with MV-4-11 cells (setting [2]) came out at 4350 nM. In addition, the “NAMPT Inhibition Code” value on NAMPT is given as “A (A = <33% inhibition)”.

As for `CC(=O)N(CC1CC1)c1ccc(-c2ccc(C(=O)NCc3cccnc3C)cn2)cc1C` [Compound I-488, 6-[4-[Acetyl(cyclopropylmethyl)amino]-3-methyl-phenyl]-N-[(2-methyl-3-pyridyl)methyl]pyridine-3-carboxamide], in the assay on MV-4-11 cells (setting [2]), the IC50 came out at 2820 nM. The “NAMPT Inhibition Code” value on NAMPT is on record as “A (A = <33% inhibition)”.
